Laboratory results from patent US6455076B1, “Formulations and methods for reducing skin irritation” (priority 1994, dated 2002).
Like-named read-outs stand apart in the source and are kept apart here.

Legend:
[1] = test system: skin irritation caused by lactic acid; format: in vivo, human; settings: for average inhibition of cumulative irritation (Percent Inhibition): cation salt 250 mM in 7.5% lactic acid irritant composition, applied to face, vs equimolar sodium chloride control, average over trials; for Percent Inhibition (cumulative irritation): representative panels, cation 250 mM, 7.5% lactic acid; for Percent Inhibition (cumulative irritation), dose-response: lactic acid irritation protocol
Description: The trials were conducted in a double blind, randomized, vehicle-controlled manner. Various formulations of the invention were tested in over 150 people.
Tests were conducted in multiple panels of from 7 to 12 subjects each. Subjects were instructed not to wear any makeup or facial lotions to the clinic the day of testing. T he subjects were instructed to wash their face with Ivory bar soap in the clinic prior to application of test solutions.
Lactic acid skin-irritant compositions were formulated in an appropriate vehicle prior to application to the skin of the subjects. […] […] The test formulation was applied to a defined portion of the subject's skin, typically the face. Controls were performed by applying a corresponding formulation with an equimolar amount of sodium chloride to a contralateral portion of the subject's skin.
All test solutions (including controls) were applied in a double blind, randomized fashion using the prepared solutions as previously placed in coded vial designated for use on either the right or left side of the face (or other test area). Solutions were typically applied using a cotton swab (six strokes) or sponge applicator to the face and cheek area extending from the midline of the nose over to the center of the cheek and from the cheek bone down to the jaw line. Application was made first to the right side and then to the left.
Sensory assessment scores were recorded for each treated side of the subject's skin every minute for 15 minutes or until three consecutive scores of “zero” irritation were obtained. The following scaled scores were used for sensory assessment:
Symptom scores were cumulated, separately for the cation-treated and control-treated areas, for each individual and also for the panel as a whole. Individuals not reporting a cumulative score of at least “7” on at least one treatment area were excluded (in a blinded fashion) from further analysis in order to ascertain anti-irritant efficacy with respect to the more severely-susceptible test subjects. From a practical standpoint, scores of “0” and “1” on the above scale would be considered highly desirable for a commercial product because such a response would likely not result in a consumer ceasing to use a product. Some consumers, in fact, might view the “barely perceptible” sensations represented by a score of 1 to be an indication that a facial treatment skin care product (especially an exfoliant) was working as advertised. By contrast, irritation scores of “2”, “3” and “4” would likely often result in a consumer never purchasing the product again.

[2] = test system: skin irritation; test: Cation salts formulated in commercial topical cosmetic product, inhibition of skin irritation; format: in vivo; settings: various amounts combined with Elizabeth Arden Visible Difference Refining Toner (alcohol-containing solution)
Excerpt: Cation salts of the invention were formulated at various concentrations in various commercially available topical cosmetic products.

[3] = topical application, lactic acid induced stinging, burning, tingling, itching, erythema

Compound | average inhibition of cumulative irritation (Percent Inhibition) [1] [%] | anti-irritant activity in clinical trials (in words) [1, 3] | Percent Inhibition (cumulative irritation) ([1]; vehicle 10% EtOH) [%] | inhibition of skin irritation (in words) [2] | also measured
stannous chloride | 50 | particularly active as anti-irritants |  |  | anti-irritant efficacy in panel test (FIGS. 1-4, in words) ([1]; 250 mM, one panel, time course and cumulative irritation): overall efficacy of the subject formulation is clear; Percent Inhibition (cumulative irritation) ([1]; vehicle 33.75% H2O/33.75% Gly/25% EtOH): 50%
[Sn+2] [tin(II) (Sn^2+), tin(II)] |  | effective |  |  | 
[Cl][Al]([Cl])[Cl] [Aluminum chloride, aluminum chloride] | 46 | particularly active as anti-irritants | 43 | effective to inhibit skin irritation | Percent Inhibition (cumulative irritation), dose-response ([1]; salt concentration 31 mM): 12%; Percent Inhibition (cumulative irritation), dose-response ([1]; salt concentration 62 mM): 54%; Percent Inhibition (cumulative irritation), dose-response ([1]; salt concentration 125 mM): 50%; Percent Inhibition (cumulative irritation), dose-response ([1]; salt concentration 250 mM): 42%; Percent Inhibition (cumulative irritation), dose-response ([1]; salt concentration 500 mM): 44%
O=[N+]([O-])[O-].O=[N+]([O-])[O-].[Sn+2] [stannous nitrate] |  |  |  |  | anti-irritant activity in clinical trials (in words) ([1]; human, in vivo): particularly active as anti-irritants
[F][Sn][F] [Stannous fluoride, stannous fluoride] | 15 |  | 17 | effective to inhibit skin irritation | 
